Data taken from US7163961B1, “Drugs, foods and oral compositions containing stilbene-type compounds” (Sunstar Inc., priority 1999, dated 2007).

Experiments:
[1] = system: ovariectomized female stroke-prone spontaneously hypertensive rats (SHRSP/izm); assay: Preventive action on decrease in bone weight in ovariectomized rats (climacteric conditions); type: in vivo, rat; details: left thigh bone, resveratrol in feed about 20 mg/kg per day, 8 weeks, mean ± SD, n = 5
Protocol: Rats subjected to climacteric conditions were studied to estimate the effect of the composition of the invention in preventing a decrease in bone weight. Specifically, 18-week-old female stroke-prone spontaneously hypertensive rats (SHRSP/izm) were ovariectomized and subjected to climacteric conditions. Then, the rats were grouped into a resveratrol group to which resveratrol was administered and a control group. Also provided was a sham group of rats which received a sham operation, that is, a laparotomy without ovary removal. The rats were fed ad libitum. The control group and sham group were fed with “Powdery Mixed Feed SP” (manufactured by Funahashi Farm), and the resveratrol group was fed with the same feed with resveratrol added thereto. The amount of added resveratrol administered was adjusted to about 20 mg/kg per day. Each group had 5 rats that were bred for 8 weeks. After the breeding period, the rats were slaughtered for dissection. The left thigh bone was removed from each group's rats. The thigh bones were tested for their bone density and measured for their breaking load and breaking energy values using “EZ-test” (manufactured by Shimadzu Corporation), whereby their bone strength was evaluated.

[2] = system: ovariectomized female stroke-prone spontaneously hypertensive rats (SHRSP/izm); assay: Preventive action on hypertension, cardiac hypertrophy and cerebral apoplexy in ovariectomized rats; type: in vivo, rat; details: feed with 1.5 g/kg of resveratrol added, 8 weeks
Description: Rats subjected to climacteric conditions were studied to estimate the effect of the composition of the invention in preventing a rise in blood pressure, cardiac hypertrophy and cerebral apoplexy. Specifically, 18-week-old female stroke-prone spontaneously hypertensive rats (SHRSP/izm) were ovariectomized and subjected to climacteric conditions. Then, the rats were grouped into a resveratrol group and a control group. Also provided a sham group of rats which received a sham operation, that is, a laparotomy without ovary removal. The rats were fed ad libitum. The control group and sham group were fed with “Powdery Mixed Feed SP” (manufactured by Funahashi Farm), and the resveratrol group was fed with the same mixed feed with 1.5 g/kg of resveratrol added. Five rats in each group were bred for 8 weeks. The blood pressure of the rats was measured every week without anesthesia by means of a rat caudal artery sphygmomanometer. After the breeding period, the rats were slaughtered for dissection.

[3] = system: male stroke-prone spontaneously hypertensive rats (SHRSP/izm); assay: Preventive action on hypertension and cardiac hypertrophy in male rats; type: in vivo, rat; details: 8 weeks
Protocol: The ability of the composition of the invention to prevent a rise in blood pressure and cardiac hypertrophy was researched using male rats. Firstly, 5- to 6-week-old male stroke-prone spontaneously hypertensive rats (SHRSP/izm) were grouped into a resveratrol group and a control group. The rats were fed ad libitum with “Powdery Mixed Feed SP” (manufacture by Funahashi Farm). The resveratrol group was administered resveratrol in an amount of 5 mg/kg per day. The administration was conducted by the intended clinical route, i.e., orally. The rats were force-fed orally once a day with a Teflon gastric tube. The dose was adjusted to 1 ml per 100 g of the body weight using a water for injection listed in The Japanese Pharmacopoeia, calculated according to the measured body weight of the individual rats. The control group was given the same amount of the water for injection listed in the Japanese Pharmacopoeia only. Each group had 5 rats that were bred for 8 weeks. The blood pressure of the rats was measured every 2 weeks without anesthesia by means of a rat caudal artery sphygmomanometer. After the breeding period, the rats were slaughtered for dissection and the ratio of the weight of the heart to the total body weight of the rats was measured.

osteoblastic cells = details: cultured osteoblastic cell strain; Biochem. Biophys. Res. Commun. 253, 859–863 (1998); cited from earlier work

Oc1ccc(C=Cc2cc(O)cc(O)c2)cc1 [Resveratrol, 3,5,4′-stilbenetriol]
Breaking energy ([1]; EZ-test): 0.0523 ± 0.0073 J
Breaking load ([1]; EZ-test): 99.46 ± 9.57 N
Bone density [1]: 1.479 ± 0.281 g/mL
Blood pressure compared with sham group [2]: about the same as that of the sham group
Cerebral infarction in brain tissue ([2]; 5 rats, control group 4 rats out of 5): not found in any rats
Inhibition of rise in blood pressure (FIG. 1) ([2]; caudal artery sphygmomanometer, weekly, without anesthesia): significantly higher action to inhibit a rise in the blood pressure than the control group
Brain weight per body weight ([2]; mean ± SD, n = 5): 0.803 ± 0.02%
Heart weight per body weight ([2]; mean ± SD, n = 5): 0.424 ± 0.023%
Heart weight per body weight ([3]; 5 mg/kg per day orally by gastric tube, mean ± SD, n = 5): 0.557 ± 0.024%
Inhibition of rise in blood pressure (FIG. 2) ([3]; 5 mg/kg per day orally, caudal artery sphygmomanometer, every 2 weeks): significantly higher action to inhibit a rise in the blood pressure
Activity of alkaline phosphatase (osteoblastic cells): accelerates the activity of alkaline phosphatase
Activity of prolyl hydroxylase (osteoblastic cells): enhances the activity of prolyl hydroxylase
Proliferation of osteoblastic cells (osteoblastic cells): accelerates the proliferation of osteoblastic cells
